Experimental data from PubChem BioAssay AID1919008 (Molecular Pharmacology Branch, DTP, NCI, 2023).

Tested on: DMS-114 complex spheroids with HUVEC/MSC, growth % test/control
Test: Anticancer human tumor DMS-114 cell line growth inhibition [AhR];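 further: spheroids exposed to agents for 7 days before readout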;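 on viability, T/C: 100% = DMSO vehicle control wells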
Details: for IC50: curve of first compound; for viability, T/C: stronger effect = lower value
In short: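 Complex tumor spheroids co-cultured with HUVEC and human MSC stroma; AhR antagonists tested in combination with standard-of-care and investigational agents. Top concentration at or near clinical Cmax (else 10 microM), half-log dilutions; growth expressed as percent test/control.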

[1] = second compound 0.1 µM, first compound 0.0316 µM
[2] = second compound 0.1 µM, first compound 0.1 µM
[3] = second compound 0.1 µM, first compound 0.316 µM
[4] = second compound 0.1 µM, first compound 1 µM
[5] = second compound 0.1 µM, first compound 3.16 µM
[6] = second compound 0.1 µM, first compound 10 µM
[7] = second compound 0.316 µM, first compound 0.0316 µM
[8] = second compound 0.316 µM, first compound 0.1 µM
[9] = second compound 0.316 µM, first compound 0.316 µM
[10] = second compound 0.316 µM, first compound 1 µM
[11] = second compound 0.316 µM, first compound 3.16 µM
[12] = second compound 0.316 µM, first compound 10 µM
[13] = second compound 1 µM, first compound 0.0316 µM
[14] = second compound 1 µM, first compound 0.1 µM
[15] = second compound 1 µM, first compound 0.316 µM
[16] = second compound 1 µM, first compound 1 µM
[17] = second compound 1 µM, first compound 3.16 µM
[18] = second compound 1 µM, first compound 10 µM
[19] = second compound 3.16 µM, first compound 0.0316 µM
[20] = second compound 3.16 µM, first compound 0.1 µM
[21] = second compound 3.16 µM, first compound 0.316 µM
[22] = second compound 3.16 µM, first compound 1 µM
[23] = second compound 3.16 µM, first compound 3.16 µM
[24] = second compound 3.16 µM, first compound 10 µM
[25] = second compound 10 µM, first compound 0.0316 µM
[26] = second compound 10 µM, first compound 0.1 µM
[27] = second compound 10 µM, first compound 0.316 µM
[28] = second compound 10 µM, first compound 1 µM
[29] = second compound 10 µM, first compound 3.16 µM
[30] = second compound 10 µM, first compound 10 µM
[31] = second compound 0.1 µM, first compound 0.00949 µM
[32] = second compound 0.1 µM, first compound 0.03 µM
[33] = second compound 0.1 µM, first compound 0.0949 µM
[34] = second compound 0.1 µM, first compound 0.3 µM
[35] = second compound 0.316 µM, first compound 0.00949 µM
[36] = second compound 0.316 µM, first compound 0.03 µM
[37] = second compound 0.316 µM, first compound 0.0949 µM
[38] = second compound 0.316 µM, first compound 0.3 µM
[39] = second compound 1 µM, first compound 0.00949 µM
[40] = second compound 1 µM, first compound 0.03 µM
[41] = second compound 1 µM, first compound 0.0949 µM
[42] = second compound 1 µM, first compound 0.3 µM
[43] = second compound 3.16 µM, first compound 0.00949 µM
[44] = second compound 3.16 µM, first compound 0.03 µM
[45] = second compound 3.16 µM, first compound 0.0949 µM
[46] = second compound 3.16 µM, first compound 0.3 µM
[47] = second compound 10 µM, first compound 0.00949 µM
[48] = second compound 10 µM, first compound 0.03 µM
[49] = second compound 10 µM, first compound 0.0949 µM
[50] = second compound 10 µM, first compound 0.3 µM

CC1(C)CCC(CN2CCN(c3ccc(C(=O)NS(=O)(=O)c4ccc(NCC5CCOCC5)c([N+](=O)[O-])c4)c(Oc4cnc5[nH]ccc5c4)c3)CC2)=C(c2ccc(Cl)cc2)C1 + Cc1ccccc1N=Nc1ccc(NC(=O)c2ccnn2C)c(C)c1
IC50 (second compound 0.1 µM): > 10000 nM | IC50 (second compound 0.316 µM): > 10000 nM | IC50 (second compound 1 µM): > 10000 nM | IC50 (second compound 3.16 µM): > 10000 nM | IC50 (second compound 10 µM): > 10000 nM | viability, T/C [1]: 103% | viability, T/C [2]: 100% | viability, T/C [3]: 112% | viability, T/C [4]: 114% | viability, T/C [5]: 120% | viability, T/C [6]: 107% | viability, T/C [7]: 120% | viability, T/C [8]: 112% | viability, T/C [9]: 105% | viability, T/C [10]: 104% | viability, T/C [11]: 117% | viability, T/C [12]: 118% | viability, T/C [13]: 105% | viability, T/C [14]: 107% | viability, T/C [15]: 113% | viability, T/C [16]: 111% | viability, T/C [17]: 117% | viability, T/C [18]: 102% | viability, T/C [19]: 99.8% | viability, T/C [20]: 104% | viability, T/C [21]: 103% | viability, T/C [22]: 110% | viability, T/C [23]: 114% | viability, T/C [24]: 105% | viability, T/C [25]: 104% | viability, T/C [26]: 102% | viability, T/C [27]: 101% | viability, T/C [28]: 104% | viability, T/C [29]: 101% | viability, T/C [30]: 87.1%

CCN(c1cc(-c2ccc(CN3CCOCC3)cc2)cc(C(=O)NCc2c(C)cc(C)[nH]c2=O)c1C)C1CCOCC1 + Cc1ccccc1N=Nc1ccc(NC(=O)c2ccnn2C)c(C)c1
IC50 (second compound 0.1 µM): > 3000 nM | IC50 (second compound 0.316 µM): > 3000 nM | IC50 (second compound 1 µM): > 3000 nM | IC50 (second compound 3.16 µM): > 3000 nM | IC50 (second compound 10 µM): > 3000 nM | viability, T/C [31]: 97.5% | viability, T/C [32]: 105% | viability, T/C [33]: 111% | viability, T/C [34]: 114% | viability, T/C (second compound 0.1 µM, first compound 0.949 µM): 101% | viability, T/C (second compound 0.1 µM, first compound 3 µM): 102% | viability, T/C [35]: 105% | viability, T/C [36]: 101% | viability, T/C [37]: 104% | viability, T/C [38]: 113% | viability, T/C (second compound 0.316 µM, first compound 0.949 µM): 108% | viability, T/C (second compound 0.316 µM, first compound 3 µM): 100% | viability, T/C [39]: 108% | viability, T/C [40]: 101% | viability, T/C [41]: 110% | viability, T/C [42]: 110% | viability, T/C (second compound 1 µM, first compound 0.949 µM): 112% | viability, T/C (second compound 1 µM, first compound 3 µM): 98.8% | viability, T/C [43]: 108% | viability, T/C [44]: 104% | viability, T/C [45]: 110% | viability, T/C [46]: 102% | viability, T/C (second compound 3.16 µM, first compound 0.949 µM): 107% | viability, T/C (second compound 3.16 µM, first compound 3 µM): 105% | viability, T/C [47]: 106% | viability, T/C [48]: 104% | viability, T/C [49]: 102% | viability, T/C [50]: 108% | viability, T/C (second compound 10 µM, first compound 0.949 µM): 103% | viability, T/C (second compound 10 µM, first compound 3 µM): 102%

Cn1ncnc1C1c2n[nH]c(=O)c3cc(F)cc(c23)NC1c1ccc(F)cc1 (stereo not given) + Cc1ccccc1N=Nc1ccc(NC(=O)c2ccnn2C)c(C)c1
IC50 (second compound 0.1 µM): > 100 nM | IC50 (second compound 0.316 µM): > 100 nM | IC50 (second compound 1 µM): > 100 nM | IC50 (second compound 3.16 µM): > 100 nM | IC50 (second compound 10 µM): > 100 nM | viability, T/C (second compound 0.1 µM, first compound 0.000316 µM): 118% | viability, T/C (second compound 0.1 µM, first compound 0.001 µM): 101% | viability, T/C (second compound 0.1 µM, first compound 0.00316 µM): 111% | viability, T/C (second compound 0.1 µM, first compound 0.01 µM): 110% | viability, T/C [1]: 120% | viability, T/C [2]: 107% | viability, T/C (second compound 0.316 µM, first compound 0.000316 µM): 104% | viability, T/C (second compound 0.316 µM, first compound 0.001 µM): 105% | viability, T/C (second compound 0.316 µM, first compound 0.00316 µM): 104% | viability, T/C (second compound 0.316 µM, first compound 0.01 µM): 113% | viability, T/C [7]: 104% | viability, T/C [8]: 112% | viability, T/C (second compound 1 µM, first compound 0.000316 µM): 103% | viability, T/C (second compound 1 µM, first compound 0.001 µM): 112% | viability, T/C (second compound 1 µM, first compound 0.00316 µM): 108% | viability, T/C (second compound 1 µM, first compound 0.01 µM): 101% | viability, T/C [13]: 111% | viability, T/C [14]: 113% | viability, T/C (second compound 3.16 µM, first compound 0.000316 µM): 96% | viability, T/C (second compound 3.16 µM, first compound 0.001 µM): 104% | viability, T/C (second compound 3.16 µM, first compound 0.00316 µM): 102% | viability, T/C (second compound 3.16 µM, first compound 0.01 µM): 111% | viability, T/C [19]: 98.3% | viability, T/C [20]: 104% | viability, T/C (second compound 10 µM, first compound 0.000316 µM): 93.5% | viability, T/C (second compound 10 µM, first compound 0.001 µM): 93.3% | viability, T/C (second compound 10 µM, first compound 0.00316 µM): 90% | viability, T/C (second compound 10 µM, first compound 0.01 µM): 96.2% | viability, T/C [25]: 95.1% | viability, T/C [26]: 95%

NS(=O)(=O)OCC1CC(n2ccc3c(NC4CCc5ccccc54)ncnc32)CC1O (stereo not given) + Cc1ccccc1N=Nc1ccc(NC(=O)c2ccnn2C)c(C)c1
IC50 (second compound 0.1 µM): 229 nM | IC50 (second compound 0.316 µM): 203 nM | IC50 (second compound 1 µM): 201 nM | IC50 (second compound 3.16 µM): 228 nM | IC50 (second compound 10 µM): 215 nM | viability, T/C [1]: 137% | viability, T/C [2]: 84.8% | viability, T/C [3]: 37% | viability, T/C [4]: 18.4% | viability, T/C [5]: 19% | viability, T/C [6]: 16.1% | viability, T/C [7]: 113% | viability, T/C [8]: 73.9% | viability, T/C [9]: 34.3% | viability, T/C [10]: 22.8% | viability, T/C [11]: 17.2% | viability, T/C [12]: 16.3% | viability, T/C [13]: 119% | viability, T/C [14]: 76.7% | viability, T/C [15]: 32% | viability, T/C [16]: 23.4% | viability, T/C [17]: 21.6% | viability, T/C [18]: 17.3% | viability, T/C [19]: 128% | viability, T/C [20]: 80.9% | viability, T/C [21]: 37.6% | viability, T/C [22]: 24.1% | viability, T/C [23]: 19.9% | viability, T/C [24]: 21.3% | viability, T/C [25]: 86.5% | viability, T/C [26]: 77.5% | viability, T/C [27]: 35.9% | viability, T/C [28]: 25.7% | viability, T/C [29]: 22.4% | viability, T/C [30]: 20.1%

Nc1ncn(C2CC(O)C(CO)S2)c(=O)n1 (stereo not given) + Cc1ccccc1N=Nc1ccc(NC(=O)c2ccnn2C)c(C)c1
IC50 (second compound 0.1 µM): > 300 nM | IC50 (second compound 0.316 µM): > 300 nM | IC50 (second compound 1 µM): > 300 nM | IC50 (second compound 3.16 µM): > 300 nM | IC50 (second compound 10 µM): > 300 nM | viability, T/C (second compound 0.1 µM, first compound 0.000949 µM): 94.1% | viability, T/C (second compound 0.1 µM, first compound 0.003 µM): 96.7% | viability, T/C [31]: 106% | viability, T/C [32]: 101% | viability, T/C [33]: 98.6% | viability, T/C [34]: 88.6% | viability, T/C (second compound 0.316 µM, first compound 0.000949 µM): 94.9% | viability, T/C (second compound 0.316 µM, first compound 0.003 µM): 96.3% | viability, T/C [35]: 103% | viability, T/C [36]: 105% | viability, T/C [37]: 111% | viability, T/C [38]: 95.5% | viability, T/C (second compound 1 µM, first compound 0.000949 µM): 101% | viability, T/C (second compound 1 µM, first compound 0.003 µM): 102% | viability, T/C [39]: 99.2% | viability, T/C [40]: 105% | viability, T/C [41]: 117% | viability, T/C [42]: 98.9% | viability, T/C (second compound 3.16 µM, first compound 0.000949 µM): 113% | viability, T/C (second compound 3.16 µM, first compound 0.003 µM): 93.4% | viability, T/C [43]: 96.9% | viability, T/C [44]: 105% | viability, T/C [45]: 91.7% | viability, T/C [46]: 91.3% | viability, T/C (second compound 10 µM, first compound 0.000949 µM): 99.4% | viability, T/C (second compound 10 µM, first compound 0.003 µM): 97.3% | viability, T/C [47]: 92.3% | viability, T/C [48]: 94.3% | viability, T/C [49]: 91.7% | viability, T/C [50]: 74.7%
